Source: PubChem BioAssay (NCI)
Where “and” joins values, the source holds several entries; their conditions need not be identical. Equal values may be shown once.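 Five concentrations, 48 hours, 96-well plates. GI50 marks 50% less growth. The concentration for full growth arrest is given as TGI.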

Columns and labels:
Assay in all cases: NCI anticancer screen, dose series, 48 h
DU-145 prostate = test system: DU-145 prostate
HS 578T breast = test system: HS 578T breast
MDA-N = test system: MDA-N
PC-3 prostate = test system: PC-3 prostate
DLD-1 colon = test system: DLD-1 colon
LXFL 529 NSCLC = test system: LXFL 529 NSCLC
SNB-78 CNS = test system: SNB-78 CNS
XF 498 CNS = test system: XF 498 CNS

Compound | TGI (DU-145 prostate) | TGI (HS 578T breast) | TGI (PC-3 prostate) | GI50 (DU-145 prostate) | GI50 (PC-3 prostate) | GI50 (HS 578T breast) | other results
Cc1cc(Cl)ccc1OCC(=O)Oc1c(Cl)c(Cl)c(Cl)c(Cl)c1Cl | 49.2 µM | 66.3 µM | 80.1 µM |  |  |  | TGI (MDA-N): 74.5 µM
COc1ccc(/C=C2/CCOC2=O)cc1 | > 100 µM |  | > 100 µM | > 100 µM | > 100 µM |  | 
O=C(O)c1cc2c3c(c1)[C@H]1C=CC[C@H]1CN3CC1CC=CC21 (stereo not given in full) |  |  |  |  |  |  | TGI (DLD-1 colon): > 100 µM; TGI (LXFL 529 NSCLC): > 100 µM; TGI (SNB-78 CNS): > 100 µM; TGI (XF 498 CNS): > 100 µM
CC(C)(C)OC(=O)N(CCCn1c2c(c3ccccc3c1=O)C(=O)c1ccccc1-2)CCN(CCCn1c2c(c3ccccc3c1=O)C(=O)c1ccccc1-2)C(=O)OC(C)(C)C | > 50 µM | > 50 µM | > 50 µM | > 50 µM | > 50 µM | 15.8 µM | 
C[C@]1(O)CC(=O)[C@]2(O)C3=C(C=C[C@]2(O)C1)C(=O)c1c(O)cccc1C3=O | 3.24 µM | 14.7 µM | 10.1 µM | 1.75 µM | 2.42 µM | 2.74 µM | 
COc1ccc(-c2ccc(=O)oc2-c2cc(OC)c(OC)c(OC)c2)cc1O |  | > 100 µM | > 100 µM | 0.0297 µM | 0.0183 µM | 0.0275 µM | 
CCC(=O)[O-].CCC(=O)[O-].N.N.N.N.[Co+3].[O-][Cl+3]([O-])([O-])[O-] |  |  |  |  |  |  | GI50 (DLD-1 colon): > 100 µM; TGI (DLD-1 colon): > 100 µM; GI50 (LXFL 529 NSCLC): > 100 µM; TGI (LXFL 529 NSCLC): > 100 µM; GI50 (SNB-78 CNS): > 100 µM; TGI (SNB-78 CNS): > 100 µM
S=C(S)NCCCn1ccnc1 | > 100 µM |  | > 100 µM |  |  |  | TGI (MDA-N): > 100 µM
COc1cc([N+](=O)[O-])c(S(=O)(=O)O)cc1-n1nc(-c2ccccc2)n[n+]1-c1cc(S(=O)(=O)[O-])c([N+](=O)[O-])cc1OC | > 100 µM | > 100 µM | > 100 µM |  |  |  | TGI (MDA-N): > 100 µM
CCCCCCCCCCCCCCCC[N+](C)(C)C | 0.665 µM and 2.91 µM | 0.984 µM and 5.46 µM | 0.376 µM | 0.233 µM and 1.4 µM | 0.15 µM | 0.269 µM and 1.82 µM | 
COc1ccc2c3c([nH]c2c1[N+](=O)[O-])C(C)N(C(=O)/C=C/c1ccccc1)CC3 (stereo not given) |  |  |  |  |  |  | TGI (LXFL 529 NSCLC): > 100 µM; TGI (SNB-78 CNS): > 100 µM
COc1cc(C)c(N(C)C(=O)CN(C)C)cc1Nc1nc(Nc2cccc(F)c2C(N)=O)c2cc[nH]c2n1 | > 25 µM | > 25 µM | > 25 µM | > 25 µM | > 25 µM | > 17.5 µM | 
CP(=O)(CCSc1ccccc1)c1ccccc1 (stereo not given) |  |  |  |  |  |  | TGI (DLD-1 colon): > 100 µM; TGI (LXFL 529 NSCLC): > 100 µM; TGI (SNB-78 CNS): > 100 µM; TGI (XF 498 CNS): > 100 µM
O=c1cc(-c2ccccc2)oc2cc(OCc3cn(Cc4ccc(F)cc4)nn3)cc(O)c12 | > 100 µM | > 100 µM |  | > 100 µM |  | 6.26 µM | 
COc1ccc(-n2nc(C)c3c(Nc4ccc(NC(=O)Nc5cc(C(F)(F)F)ccc5F)cc4)ncnc32)cc1 | > 100 µM | 7.11 µM | 6.85 µM | 3.65 µM | 2.13 µM | 2.33 µM | 
C/C(CC(=O)Nc1ccc(C)cc1)=N\NC(N)=S |  |  |  |  |  |  | TGI (DLD-1 colon): > 100 µM; TGI (LXFL 529 NSCLC): > 100 µM; TGI (SNB-78 CNS): > 100 µM; TGI (XF 498 CNS): > 100 µM
O=C(O)C1(C(=O)O)CCN(S(=O)(=O)c2ccccc2)CC1 | > 100 µM | > 100 µM | > 100 µM |  |  |  | TGI (MDA-N): > 100 µM
O=c1c2ccccc2c(C=NCCNCCO)c2oc3ccccc3n12 | 24.5 µM |  | 34.1 µM | 12.1 µM | 13.9 µM |  | 
CC1=C(CC/C(C)=C/CCC2(C)CCC([C@H](C)C(=O)O)OO2)C(C)(C)CCC1 (stereo not given in full) (tested in a mixture with another compound) |  |  |  |  |  |  | TGI (DLD-1 colon): > 100 µM; TGI (LXFL 529 NSCLC): > 100 µM; TGI (SNB-78 CNS): > 100 µM
Cn1c(-c2c(N)n(Cc3ccc(Cl)cc3)c3nc(C#N)c(C#N)nc23)nc2ccccc21 | 17.4 µM | 24.5 µM | > 50 µM | 5.94 µM | 4.62 µM | 4 µM | 
CN1CCN(c2ccc(NC3=C(Cl)C(=O)c4ncccc4C3=O)cc2C(F)(F)F)CC1 | 3.71 µM | 42.3 µM | 6.85 µM | 1.91 µM | 2.23 µM | 3.31 µM | 
Cc1cc2cc(Oc3ccnc(Nc4cccc(CS(=O)(=O)NCCN(C)C)c4)n3)ccc2[nH]1 | 21.6 µM | 29.5 µM | 13.2 µM | 9.86 µM | 3.38 µM | 3.17 µM | 
CC(=O)c1ccc(NCn2nc(-c3ccccc3O)oc2=S)cc1 |  | > 100 µM | > 100 µM |  | 46.4 µM | > 100 µM | 
O=C(/C=C/c1ccccc1)c1ccc(O)c(CN2CCN(c3cc4c(cc3F)c(=O)c(C(=O)O)cn4C3CC3)CC2)c1 | > 100 µM | > 100 µM | > 100 µM | 1.53 µM | 0.897 µM | 0.577 µM | 
Cc1cc(C)c(S(=O)(=O)Oc2ccccc2[N+](=O)[O-])c(C)c1 | > 31.5 µM | 5.24 µM | > 100 µM | 2.38 µM | 3.31 µM | 1.42 µM | 
CCOc1ccc2c(-c3ccnc(Nc4cccc(C(F)(F)F)c4)n3)cnn2n1 | > 25 µM | > 25 µM | > 25 µM | > 19.5 µM | > 16.1 µM | > 20.2 µM | 
S=C1SC2(CCCCCC2)NC2=C1CCCCC2 | > 100 µM | 47.6 µM | > 100 µM |  |  |  | TGI (MDA-N): > 100 µM
C=C(C)[C@@H]1CC[C@]2(c3ncc(C)o3)CC[C@]3(C)[C@H](CC[C@@H]4[C@@](C)(CCC#N)[C@H](C(=C)C)CC[C@]43C)[C@@H]12 | 13.2 µM | 19.4 µM | 4 µM | 3.54 µM | 1.83 µM | 4.3 µM | 
CCCCn1c(=O)c(/C=C/C(=O)/C=C/c2ccc(O)c(OC)c2)cc2ccc(Cl)cc21 | 3.92 µM | 14.8 µM | 4.71 µM | 1.79 µM | 1.89 µM | 3.18 µM | 
CN1C(=O)NC2(O)c3ccccc3C(=O)C12O (stereo not given) |  |  |  |  |  |  | TGI (DLD-1 colon): > 100 µM; TGI (LXFL 529 NSCLC): > 100 µM; TGI (SNB-78 CNS): > 100 µM; TGI (XF 498 CNS): > 100 µM
